In ChEMBL document CHEMBL1201862, “PubChem BioAssay data set” (2004):
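Dose response: 5 concentrations. Exposure: 48 h. Format: 96-well plates. Endpoint: linear interpolation; highest concentration if not reached. At the GI50, growth is halved.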 Activity calls are given as the source filed them. Rule as the data show it: active = GI50 up to about 1.1 µM and inactive = higher.

Key:
Assay in all cases: NCI tumour cell line growth inhibition, 48 h
786-0 = tested on: 786-0
ACHN = tested on: ACHN
CAKI-1 = tested on: CAKI-1
CCRF-CEM = tested on: CCRF-CEM
HCC 2998 = tested on: HCC 2998
HL-60 = tested on: HL-60
HT-29 = tested on: HT-29
LOX IMVI = tested on: LOX IMVI
M14 = tested on: M14
Malme-3M = tested on: Malme-3M
OVCAR-4 = tested on: OVCAR-4
SF-295 = tested on: SF-295
SF-539 = tested on: SF-539
SK-MEL-5 = tested on: SK-MEL-5
SNB-75 = tested on: SNB-75
SR = tested on: SR
TK-10 = tested on: TK-10
UACC-62 = tested on: UACC-62
UO-31 = tested on: UO-31
SK-MEL-2 = tested on: SK-MEL-2

Oc1cc(Cl)cc2cc(Br)cnc12
GI50 (786-0): 9.86 µM (inactive) | GI50 (ACHN): 1.88 µM (inactive) | GI50 (CAKI-1): 6.79 µM (inactive) | GI50 (CCRF-CEM): 1.9 µM (inactive) | GI50 (HCC 2998): 15.6 µM (inactive) | GI50 (HL-60): 0.258 µM (active) | GI50 (HT-29): 11.3 µM (inactive) | GI50 (LOX IMVI): 0.463 µM (active) | GI50 (M14): 1.56 µM (inactive) | GI50 (Malme-3M): 2.23 µM (inactive) | GI50 (OVCAR-4): 3.49 µM (inactive) | GI50 (SF-295): 2.96 µM (inactive) | GI50 (SF-539): 2.18 µM (inactive) | GI50 (SK-MEL-5): 1.53 µM (inactive) | GI50 (SNB-75): 13.6 µM (inactive) | GI50 (SR): 1.42 µM (inactive) | GI50 (TK-10): 41.3 µM (inactive) | GI50 (UACC-62): 6.27 µM (inactive) | GI50 (UO-31): 3.94 µM (inactive)

O=C(Nc1nc2c(=O)[nH]cnc2s1)c1ccccc1
GI50 (786-0): > 100 µM (inactive) | GI50 (ACHN): 91 µM (inactive) | GI50 (CAKI-1): 43.6 µM (inactive) | GI50 (CCRF-CEM): > 100 µM (inactive) | GI50 (HCC 2998): > 100 µM (inactive) | GI50 (HL-60): 53.8 µM (inactive) | GI50 (HT-29): 50.4 µM (inactive) | GI50 (LOX IMVI): 64 µM (inactive) | GI50 (Malme-3M): > 100 µM (inactive) | GI50 (OVCAR-4): > 100 µM (inactive) | GI50 (SF-295): > 100 µM (inactive) | GI50 (SF-539): > 100 µM (inactive) | GI50 (SK-MEL-2): > 100 µM (inactive) | GI50 (SK-MEL-5): > 100 µM (inactive) | GI50 (SNB-75): 44.2 µM (inactive) | GI50 (SR): 0.315 µM (active) | GI50 (TK-10): 68.9 µM (inactive) | GI50 (UACC-62): > 100 µM (inactive) | GI50 (UO-31): 97.9 µM (inactive)

Cc1nc2ccc(C(F)(F)F)cc2nc1Nc1ccc(Cl)c(Cl)c1
GI50 (786-0): 4.69 µM (inactive) | GI50 (ACHN): 11.3 µM (inactive) | GI50 (CCRF-CEM): 6.44 µM (inactive) | GI50 (HCC 2998): 3.72 µM (inactive) | GI50 (HL-60): 5.62 µM (inactive) | GI50 (HT-29): 4.68 µM (inactive) | GI50 (LOX IMVI): 3.03 µM (inactive) | GI50 (Malme-3M): 19.9 µM (inactive) | GI50 (SF-295): 3.4 µM (inactive) | GI50 (SF-539): 14.1 µM (inactive) | GI50 (SK-MEL-2): 14.3 µM (inactive) | GI50 (SNB-75): > 10 µM (inactive) | GI50 (SR): 8.73 µM (inactive) | GI50 (TK-10): 17.6 µM (inactive) | GI50 (UACC-62): 12.9 µM (inactive) | GI50 (UO-31): 12.2 µM (inactive)

Cc1ccc(S(=O)(=O)N(c2ccccc2F)C2CCCCC2O)cc1 (stereo not given)
GI50 (786-0): 65.6 µM (inactive) | GI50 (ACHN): 57.7 µM (inactive) | GI50 (CCRF-CEM): 56.9 µM (inactive) | GI50 (HCC 2998): 74.6 µM (inactive) | GI50 (HL-60): 23.3 µM (inactive) | GI50 (HT-29): 43 µM (inactive) | GI50 (LOX IMVI): 38.8 µM (inactive) | GI50 (M14): 74.1 µM (inactive) | GI50 (Malme-3M): 58.7 µM (inactive) | GI50 (OVCAR-4): 39.5 µM (inactive) | GI50 (SF-295): > 100 µM (inactive) | GI50 (SF-539): > 100 µM (inactive) | GI50 (SK-MEL-2): 29.4 µM (inactive) | GI50 (SK-MEL-5): 20.7 µM (inactive) | GI50 (SNB-75): 20 µM (inactive) | GI50 (SR): 24.4 µM (inactive) | GI50 (TK-10): 97.1 µM (inactive) | GI50 (UACC-62): 46.9 µM (inactive) | GI50 (UO-31): 33.1 µM (inactive)

O=C1OC(c2ccccc2Br)=N/C1=C/c1ccccc1
GI50 (ACHN): 27.5 µM (inactive) | GI50 (CAKI-1): 35.2 µM (inactive) | GI50 (CCRF-CEM): 35 µM (inactive) | GI50 (HCC 2998): 19.1 µM (inactive) | GI50 (HL-60): 39 µM (inactive) | GI50 (HT-29): 32.1 µM (inactive) | GI50 (LOX IMVI): 21.7 µM (inactive) | GI50 (M14): 18.6 µM (inactive) | GI50 (Malme-3M): 19.6 µM (inactive) | GI50 (OVCAR-4): 25.4 µM (inactive) | GI50 (SF-295): 34.1 µM (inactive) | GI50 (SF-539): 18.5 µM (inactive) | GI50 (SK-MEL-2): 18.8 µM (inactive) | GI50 (SK-MEL-5): 35.2 µM (inactive) | GI50 (SNB-75): 53.5 µM (inactive) | GI50 (SR): 27 µM (inactive) | GI50 (TK-10): 32.8 µM (inactive) | GI50 (UACC-62): 37.1 µM (inactive) | GI50 (UO-31): 45.9 µM (inactive)

CC1C2CC(C(C3C(=O)C4CC3C(C)(C)C4C)C2=O)C1(C)C (stereo not given)
GI50 (786-0): > 100 µM (inactive) | GI50 (ACHN): > 100 µM (inactive) | GI50 (CAKI-1): > 100 µM (inactive) | GI50 (CCRF-CEM): > 100 µM (inactive) | GI50 (HCC 2998): > 100 µM (inactive) | GI50 (HL-60): > 100 µM (inactive) | GI50 (HT-29): > 100 µM (inactive) | GI50 (M14): > 100 µM (inactive) | GI50 (Malme-3M): > 100 µM (inactive) | GI50 (OVCAR-4): > 100 µM (inactive) | GI50 (SF-295): > 100 µM (inactive) | GI50 (SF-539): > 100 µM (inactive) | GI50 (SK-MEL-5): > 100 µM (inactive) | GI50 (SNB-75): > 100 µM (inactive) | GI50 (SR): > 100 µM (inactive) | GI50 (TK-10): > 100 µM (inactive) | GI50 (UACC-62): > 100 µM (inactive) | GI50 (UO-31): > 100 µM (inactive)

COc1ccc(C2c3cc4c(cc3OC(N3CCOCC3)C2C)OCO4)cc1OC (stereo not given)
GI50 (786-0): 8.15 µM (inactive) | GI50 (ACHN): 10.3 µM (inactive) | GI50 (CAKI-1): 3.07 µM (inactive) | GI50 (CCRF-CEM): 4.28 µM (inactive) | GI50 (HCC 2998): 5.53 µM (inactive) | GI50 (HL-60): 3.06 µM (inactive) | GI50 (HT-29): 4.69 µM (inactive) | GI50 (LOX IMVI): 6.11 µM (inactive) | GI50 (M14): 5.38 µM (inactive) | GI50 (Malme-3M): 11.1 µM (inactive) | GI50 (OVCAR-4): 15.8 µM (inactive) | GI50 (SF-295): 4.39 µM (inactive) | GI50 (SF-539): 3.89 µM (inactive) | GI50 (SK-MEL-2): 5.77 µM (inactive) | GI50 (SK-MEL-5): 4.06 µM (inactive) | GI50 (SNB-75): 2.99 µM (inactive) | GI50 (SR): 7.36 µM (inactive) | GI50 (TK-10): 15.6 µM (inactive) | GI50 (UACC-62): 5.48 µM (inactive) | GI50 (UO-31): 18 µM (inactive)
